Tests used:
Assay type in all cases: cell-based
[1] = tested on: Saccharomyces cerevisae; assay: Quantitative cell density test, OD 600 nm, 96 well microplates, yeast; settings: for reduction in cell density vs controls (OD 600 nm): S. cerevisae, 24 hours, 10 μL of 1 mg/mL (˜4 μM) compound in DMSO added to 200 μL culture, ANOVA p<0.000
Description: (§1) The results of the Oxford disc assay using the isolated compounds confirmed these observations for both S. cerevisae and Microbotryum violaceum. A quantitative test protocol based on cell density using OD measurements at 600 nm in 96 well microplates was employed.
(§2) Disc diffusion assays with the extracts were employed for preliminary antifungal testing using Saccharomyces cerevisae for all strains (Sumarah et al., 2008b). […] The individual compounds were further tested using these two fungi in 96 well microplates where 10 μL of 1 mg/mL (˜4 μM) of each compound in DMSO was added to 200 μL of the above macerated cultures. The plates were incubated at room temperature with constant shaking and were measured at 600 nm. The antifungal compound nystatin was used as the positive control for all experiments.

[2] = tested on: Microbotryum violaceum; assay: Disc diffusion (Oxford) antifungal assay, rust; settings: isolated compounds, rust grown on MYP
Method: (§3) The term “toxicity” as used herein with respect to the effect of a toxin compound or toxigenic endophyte strain on a pest means inhibited or reduced growth and/or pest death in the presence of the toxin compound or toxigenic endophyte compared to a control. For example, where toxicity is assessed using a disc diffusion assay, which uses a disc comprising a compound, which is placed on a microbial lawn, the compound is a toxic compound if it results in a zone of clearing around the disc.
(§4) From these strains the new aliphatic polyketide compound 1 and three related sesquiterpenes (IIa), (IIb) and (III) were isolated and characterized (see FIG. 1). Compound (III) is reported for the first time as a natural product and the E/Z conformational isomers (IIa) and (IIb) are reported as new structures (see FIG. 1). Additionally, the three known macrolides; pyrenophorol (IV), dihydropyrenophorin (V) and pyrenophorin (VI) were isolated and identified. Their structures were elucidated by spectroscopic analyses including 2D NMR, HRMS and by comparison to literature data where available.
as §1, §2

[3] = tested on: Saccharomyces cerevisae; assay: Disc diffusion (Oxford) antifungal assay, yeast; settings: isolated compounds
Method: as §3, §4, §1, §2

[4] = tested on: Microbotryum violaceum; assay: Quantitative cell density test, OD 600 nm, 96 well microplates, rust; settings: M. violaceum, 48 hours; 10 μL of 1 mg/mL (˜4 μM) compound in DMSO added to 200 μL culture; ANOVA p<0.000
Description: as §1, §2

Row | Structure (SMILES) | reduction in cell density vs controls (OD 600 nm) [1] | antifungal activity against Microbotryum violaceum [2] | antifungal activity against Microbotryum violaceum ([2]; listed as 5) | antifungal activity against Saccharomyces cerevisae [3] | reduction in cell density vs controls (OD 600 nm) [4] | rank of antifungal effect among compounds 1, (III) and (IV) ([1]; based on results of the response at 24 h) | antifungal activity against Microbotryum violaceum ([2]; listed as 2) | antifungal activity against Microbotryum violaceum ([2]; listed as (2E,4Z)-methyl-6-acetoxy-5-acetyl-7-oxohepta-2,4-dienoate)
1 | C[C@@H]1CC[C@H](O)/C=C/C(=O)O[C@H](C)CC[C@H](O)/C=C/C(=O)O1 [Compound (IV), pyrenophorol] | Statistically-significant reductions in cell density | antifungal activity | antifungal activity | antifungal activity | Statistically-significant reductions in cell density | – | – | –
2 | CC1(C)CCCC(C)(c2ccc(CO)cc2O)O1 (stereo not shown) [Compound (III), 5-(hydroxymethyl)-2-(2′,6′,6′-trimethyltetrahydro-2H-pyran-2-yl)phenol] | Statistically-significant reductions in cell density | antifungal activity | – | antifungal activity | Statistically-significant reductions in cell density | most antifungal | antifungal activity | –
3 | COC(=O)/C=C\C=C(\C=O)C(OC(C)=O)C(C)=O (stereo not shown) [Compound 1, (2Z,4E)-methyl-6-acetoxy-5-formyl-7-oxo-octa-2,4-dienoate] | Statistically-significant reductions in cell density | antifungal activity | – | antifungal activity | Statistically-significant reductions in cell density | – | – | antifungal activity

— US9469836B2, “Antifungal metabolites from fungal endophytes of Pinus strobus” (J.D. IRVING, LIMITED, priority 2011, dated 2016)
